Results from PubChem BioAssay AID248 (DTP/NCI, 2004).
“And” between values parts separate entries of the source, which are not always exact repeats. Equal entries are not always repeated. Inconclusive results and toxic doses are left out. No stated cut-off is given here; in the data, active means T/C of 150% or more; inactive means T/C below 125%.

System: L1210 leukemia ip in BDF1 mice, survival T/C
Test: NCI In Vivo Anticancer Drug Screen. Data for tumor model L1210 Leukemia (intraperitoneal) in B6D2F1 (BDF1) mice
Details: endpoint: mean survival time, higher = longer survival
In short: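 Read-out is survival time, reported as the treated-group measurement over the vehicle-control measurement.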

[1] = dose: 30.0 mg/kg/injection, schedule: Q01DX Z (ip), vehicle: saline
[2] = dose: 25.0 mg/kg/injection, schedule: Q04DX003 (ip), vehicle: saline with Tween-80
[3] = dose: 50.0 mg/kg/injection, schedule: Q04DX003 (ip), vehicle: saline with Tween-80
[4] = dose: 100.0 mg/kg/injection, schedule: Q04DX003 (ip), vehicle: saline with Tween-80
[5] = dose: 100.0 mg/kg/injection, schedule: Q01DX009 (ip), vehicle: saline with Tween-80
[6] = dose: 200.0 mg/kg/injection, schedule: Q01DX009 (ip), vehicle: saline with Tween-80
[7] = dose: 200.0 mg/kg/injection, schedule: Q04DX003 (ip), vehicle: saline with Tween-80
[8] = dose: 400.0 mg/kg/injection, schedule: Q01DX009 (ip), vehicle: saline with Tween-80
[9] = dose: 400.0 mg/kg/injection, schedule: Q04DX003 (ip), vehicle: saline with Tween-80
[10] = dose: 100.0 mg/kg/injection, schedule: Q04DX002 (ip), vehicle: saline
[11] = dose: 200.0 mg/kg/injection, schedule: Q04DX002 (ip), vehicle: saline
[12] = dose: 100.0 mg/kg/injection, schedule: Q01DX009 (ip), vehicle: other
[13] = dose: 100.0 mg/kg/injection, schedule: Q04DX003 (ip), vehicle: Klucel (hydroxypropylcellulose) (HPC)
[14] = dose: 200.0 mg/kg/injection, schedule: Q01DX009 (ip), vehicle: other
[15] = dose: 200.0 mg/kg/injection, schedule: Q04DX003 (ip), vehicle: Klucel (hydroxypropylcellulose) (HPC)
[16] = dose: 400.0 mg/kg/injection, schedule: Q04DX003 (ip), vehicle: Klucel (hydroxypropylcellulose) (HPC)
[17] = dose: 50.0 mg/kg/injection, schedule: Q01DX009 (ip), vehicle: saline with Tween-80
[18] = dose: 25.0 mg/kg/injection, schedule: Q01DX009 (ip), vehicle: saline with Tween-80

Measured: T/C

ClCC[n+]1csc2ccccc21
inactive: dose: 10.0 mg/kg/injection, schedule: Q01DX Z (ip), vehicle: saline 91 % of control | [1] 94 % of control | dose: 100.0 mg/kg/injection, schedule: Q01DX Z (ip), vehicle: saline 96 % of control | dose: 300.0 mg/kg/injection, schedule: Q01DX Z (ip), vehicle: saline 110 % of control

CCC(Cl)COP(=O)(OCC(Cl)CC)OC(c1ccc(Cl)c(Cl)c1)P(=O)(OCC(Cl)CC)OCC(Cl)CC (stereo not given)
inactive: dose: 50.0 mg/kg/injection, schedule: Q01DX001 (ip), vehicle: saline with Tween-80 95 % of control | dose: 100.0 mg/kg/injection, schedule: Q01DX001 (ip), vehicle: saline with Tween-80 103 % of control | dose: 200.0 mg/kg/injection, schedule: Q01DX001 (ip), vehicle: saline with Tween-80 93 % of control

CC1(c2ccc[n+](CC(=O)c3ccccc3)c2)OCCO1
inactive: dose: 75.0 mg/kg/injection, schedule: Q01DX001 (ip), vehicle: saline 104 % of control | dose: 150.0 mg/kg/injection, schedule: Q01DX001 (ip), vehicle: saline 105 % of control

Cc1ccc(C(=O)N2C(=O)Cc3ccccc32)cc1
inactive: dose: 50.0 mg/kg/injection, schedule: Q04DX002 (ip), vehicle: Klucel (hydroxypropylcellulose) (HPC) 90 % of control | dose: 100.0 mg/kg/injection, schedule: Q04DX002 (ip), vehicle: Klucel (hydroxypropylcellulose) (HPC) 94 % of control | dose: 200.0 mg/kg/injection, schedule: Q04DX002 (ip), vehicle: Klucel (hydroxypropylcellulose) (HPC) 94 % of control

CN(C)NC(=O)C(c1ccccc1)c1ccccc1
inactive: [2] 100 % of control | [3] 97 % of control | [4] 92 % of control and 97 % of control

COC(=O)N1c2ccccc2C=C(NC(C)=O)C1C#N (stereo not given)
inactive: [5] 117 % of control | [4] 103 % of control | [6] 98 % of control | [7] 95 % of control | [8] 98 % of control | [9] 94 % of control

NC(=O)C(O)C(O)C(O)C(O)CO (stereo not given)
inactive: [10] 91 % of control and 99 % of control | [11] 95 % of control and 96 % of control | dose: 400.0 mg/kg/injection, schedule: Q04DX002 (ip), vehicle: saline 95 % of control and 105 % of control

O=C(Nc1cccc(NC(=O)Nc2cc(C(O)=Nc3ccc(C4=NCCN4)cc3)ccc2C(O)=Nc2ccc(C3=NCCN3)cc2)c1)Nc1cc(C(O)=Nc2ccc(C3=NCCN3)cc2)ccc1C(O)=Nc1ccc(C2=NCCN2)cc1
inactive: dose: 15.0 mg/kg/injection, schedule: Q01DX Z (ip), vehicle: saline 92 % of control | [1] 97 % of control | dose: 60.0 mg/kg/injection, schedule: Q01DX Z (ip), vehicle: saline 102 % of control | dose: 120.0 mg/kg/injection, schedule: Q01DX Z (ip), vehicle: saline 105 % of control

N#CCc1ccc(NN)cc1
inactive: dose: 75.0 mg/kg/injection, schedule: Q01DX009 (ip), vehicle: other 93 % of control | dose: 150.0 mg/kg/injection, schedule: Q01DX009 (ip), vehicle: other 95 % of control

C[N+]1(C)CCC[N+](C)(C)CC1
inactive: dose: 55.0 mg/kg/injection, schedule: Q01DX Z (ip), vehicle: saline 95 % of control | dose: 83.0 mg/kg/injection, schedule: Q01DX Z (ip), vehicle: saline 98 % of control | dose: 125.0 mg/kg/injection, schedule: Q01DX Z (ip), vehicle: saline 103 % of control

OC12C3CCCC1CCCC2CCC3 (stereo not given)
inactive: [12] 101 % of control | dose: 100.0 mg/kg/injection, schedule: Q01DX009 (ip), vehicle: saline sonified 103 % of control | [5] 110 % of control and 90 % of control | [13] 95 % of control and 106 % of control and 96 % of control | dose: 100.0 mg/kg/injection, schedule: Q04DX003 (ip), vehicle: saline 102 % of control | [14] 94 % of control | dose: 200.0 mg/kg/injection, schedule: Q01DX009 (ip), vehicle: saline sonified 103 % of control | [6] 106 % of control and 89 % of control | [15] 108 % of control and 100 % of control and 96 % of control | dose: 200.0 mg/kg/injection, schedule: Q04DX003 (ip), vehicle: saline 102 % of control | dose: 400.0 mg/kg/injection, schedule: Q01DX009 (ip), vehicle: other 92 % of control | dose: 400.0 mg/kg/injection, schedule: Q01DX009 (ip), vehicle: saline sonified 92 % of control | [8] 95 % of control and 92 % of control | [16] 95 % of control and 104 % of control and 114 % of control | dose: 400.0 mg/kg/injection, schedule: Q04DX003 (ip), vehicle: saline 104 % of control

COc1ccc(C(=O)C/C(=N\N(C(=O)c2ccc(OC)cc2)c2ccccc2)c2ccc(OC)cc2)cc1
inactive: [17] 100 % of control | [5] 93 % of control | [6] 98 % of control

COC(=O)C1C2CCC1(C)C(O)C2 (stereo not given)
inactive: dose: 75.0 mg/kg/injection, schedule: Q01DX009 (ip), vehicle: saline with Tween-80 96 % of control | dose: 150.0 mg/kg/injection, schedule: Q01DX009 (ip), vehicle: saline with Tween-80 107 % of control | dose: 300.0 mg/kg/injection, schedule: Q01DX009 (ip), vehicle: saline with Tween-80 100 % of control

O=S(=O)(/C=N\N=P(c1ccccc1)(c1ccccc1)c1ccccc1)c1ccccc1-c1ccccc1
inactive: [4] 109 % of control | [7] 98 % of control | [9] 93 % of control

C[N+](C)(N)Cc1ccc(C[N+](C)(C)N)cc1
inactive: [10] 108 % of control | [11] 97 % of control

C1OCC(C2OCOC3COCOC32)O1 (stereo not given)
inactive: [13] 98 % of control | [15] 95 % of control | [16] 95 % of control

COc1ccc2c(c1)c(C)cc[n+]2C
inactive: dose: 12.5 mg/kg/injection, schedule: Q01DX001 (ip), vehicle: saline 108 % of control | dose: 12.5 mg/kg/injection, schedule: Q01DX009 (ip), vehicle: saline 109 % of control | dose: 25.0 mg/kg/injection, schedule: Q01DX001 (ip), vehicle: saline 110 % of control | dose: 25.0 mg/kg/injection, schedule: Q01DX009 (ip), vehicle: saline 107 % of control | dose: 50.0 mg/kg/injection, schedule: Q01DX001 (ip), vehicle: saline 110 % of control | dose: 50.0 mg/kg/injection, schedule: Q01DX009 (ip), vehicle: saline 124 % of control

CCCCCCCN(CCCCCCC)CC(O)c1cc2ccccc2c2cnccc12 (stereo not given)
inactive: [12] 98 % of control | [13] 91 % of control | [14] 97 % of control | [15] 98 % of control | [16] 93 % of control

C(#CCN1CCCC1)CCCN1CCCC1
inactive: [18] 98 % of control | [2] 97 % of control | [17] 102 % of control | [3] 97 % of control | [5] 95 % of control | [4] 93 % of control and 98 % of control

COc1cc(C=Nc2ccc(C(=O)O)c(O)c2)ccc1N(CCCl)CCCl
inactive: dose: 11.0 mg/kg/injection, schedule: Q01DX001 (ip), vehicle: carboxymethylcellulose (CMC) 118 % of control

CON(C)S(=O)(=O)c1ccccc1
inactive: [13] 103 % of control | [15] 97 % of control | [16] 95 % of control

CCCCC(O)(C(C)C)C(C)C
inactive: dose: 100.0 mg/kg/injection, schedule: Q01DX001 (ip), vehicle: carboxymethylcellulose (CMC) 102 % of control | dose: 200.0 mg/kg/injection, schedule: Q01DX001 (ip), vehicle: carboxymethylcellulose (CMC) 98 % of control | dose: 400.0 mg/kg/injection, schedule: Q01DX001 (ip), vehicle: carboxymethylcellulose (CMC) 98 % of control

ClC1=C(Cl)C2(Cl)CC1(Cl)C1OC12 (stereo not given)
inactive: dose: 12.5 mg/kg/injection, schedule: Q01DX009 (ip), vehicle: saline with Tween-80 104 % of control | [18] 104 % of control | [17] 96 % of control

CC(=O)Nc1ccc(C=Nc2ccc3c(c2)Cc2ccccc2-3)cc1
inactive: dose: 100.0 mg/kg/injection, schedule: Q01DX009 (ip), vehicle: Klucel (hydroxypropylcellulose) (HPC) 91 % of control | [13] 94 % of control | dose: 200.0 mg/kg/injection, schedule: Q01DX009 (ip), vehicle: Klucel (hydroxypropylcellulose) (HPC) 87 % of control | [15] 90 % of control | dose: 400.0 mg/kg/injection, schedule: Q01DX009 (ip), vehicle: Klucel (hydroxypropylcellulose) (HPC) 86 % of control | [16] 89 % of control
